Data as given in publication PMC7693676, “Suberitamides A–C, Aryl Alkaloids from a Pseudosuberites sp. Marine Sponge that Inhibit Cbl-b Ubiquitin Ligase Activity” (Marine Drugs, 2020).

Target: T1, Cbl-b (Homo sapiens, UniProt Q13191)
T1 construct: gene CBLB; N1/2 Construct; with E1 (UBE1) and E2 (UBC-H5) with ubiquitin in the assay
Assay: in vitro Cbl-b autoubiquitination assay (UBA-coated plate, biotin-ubiquitin/avidin-HRP fluorescence), dose response
Type: biochemical

T1 sequence (Q13191 whole entry): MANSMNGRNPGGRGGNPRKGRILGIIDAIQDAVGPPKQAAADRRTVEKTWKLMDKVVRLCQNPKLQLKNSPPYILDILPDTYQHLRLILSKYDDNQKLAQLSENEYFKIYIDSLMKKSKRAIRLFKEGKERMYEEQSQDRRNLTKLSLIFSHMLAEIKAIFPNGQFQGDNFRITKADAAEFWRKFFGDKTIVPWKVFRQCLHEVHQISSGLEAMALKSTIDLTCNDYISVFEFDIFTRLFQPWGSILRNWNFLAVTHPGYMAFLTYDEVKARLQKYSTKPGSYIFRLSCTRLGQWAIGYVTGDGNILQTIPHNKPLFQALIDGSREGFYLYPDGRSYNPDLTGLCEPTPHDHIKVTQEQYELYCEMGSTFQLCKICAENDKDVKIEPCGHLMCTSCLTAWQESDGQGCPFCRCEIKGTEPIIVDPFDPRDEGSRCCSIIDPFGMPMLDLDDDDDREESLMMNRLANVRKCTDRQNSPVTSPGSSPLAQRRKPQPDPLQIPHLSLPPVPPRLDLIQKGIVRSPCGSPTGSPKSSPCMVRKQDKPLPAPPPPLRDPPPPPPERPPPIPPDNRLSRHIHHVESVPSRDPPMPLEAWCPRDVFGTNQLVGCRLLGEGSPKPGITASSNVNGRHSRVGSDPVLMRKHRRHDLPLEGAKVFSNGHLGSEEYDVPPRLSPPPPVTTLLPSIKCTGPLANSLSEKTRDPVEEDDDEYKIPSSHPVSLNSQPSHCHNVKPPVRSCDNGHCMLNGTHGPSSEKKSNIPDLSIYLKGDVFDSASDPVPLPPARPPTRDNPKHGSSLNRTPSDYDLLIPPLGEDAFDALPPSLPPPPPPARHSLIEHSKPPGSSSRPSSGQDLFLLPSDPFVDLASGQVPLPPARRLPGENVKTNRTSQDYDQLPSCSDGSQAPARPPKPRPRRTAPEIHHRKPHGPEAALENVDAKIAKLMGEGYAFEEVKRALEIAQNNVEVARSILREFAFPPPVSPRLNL
T1 sequence (P22314 2-1058 partner): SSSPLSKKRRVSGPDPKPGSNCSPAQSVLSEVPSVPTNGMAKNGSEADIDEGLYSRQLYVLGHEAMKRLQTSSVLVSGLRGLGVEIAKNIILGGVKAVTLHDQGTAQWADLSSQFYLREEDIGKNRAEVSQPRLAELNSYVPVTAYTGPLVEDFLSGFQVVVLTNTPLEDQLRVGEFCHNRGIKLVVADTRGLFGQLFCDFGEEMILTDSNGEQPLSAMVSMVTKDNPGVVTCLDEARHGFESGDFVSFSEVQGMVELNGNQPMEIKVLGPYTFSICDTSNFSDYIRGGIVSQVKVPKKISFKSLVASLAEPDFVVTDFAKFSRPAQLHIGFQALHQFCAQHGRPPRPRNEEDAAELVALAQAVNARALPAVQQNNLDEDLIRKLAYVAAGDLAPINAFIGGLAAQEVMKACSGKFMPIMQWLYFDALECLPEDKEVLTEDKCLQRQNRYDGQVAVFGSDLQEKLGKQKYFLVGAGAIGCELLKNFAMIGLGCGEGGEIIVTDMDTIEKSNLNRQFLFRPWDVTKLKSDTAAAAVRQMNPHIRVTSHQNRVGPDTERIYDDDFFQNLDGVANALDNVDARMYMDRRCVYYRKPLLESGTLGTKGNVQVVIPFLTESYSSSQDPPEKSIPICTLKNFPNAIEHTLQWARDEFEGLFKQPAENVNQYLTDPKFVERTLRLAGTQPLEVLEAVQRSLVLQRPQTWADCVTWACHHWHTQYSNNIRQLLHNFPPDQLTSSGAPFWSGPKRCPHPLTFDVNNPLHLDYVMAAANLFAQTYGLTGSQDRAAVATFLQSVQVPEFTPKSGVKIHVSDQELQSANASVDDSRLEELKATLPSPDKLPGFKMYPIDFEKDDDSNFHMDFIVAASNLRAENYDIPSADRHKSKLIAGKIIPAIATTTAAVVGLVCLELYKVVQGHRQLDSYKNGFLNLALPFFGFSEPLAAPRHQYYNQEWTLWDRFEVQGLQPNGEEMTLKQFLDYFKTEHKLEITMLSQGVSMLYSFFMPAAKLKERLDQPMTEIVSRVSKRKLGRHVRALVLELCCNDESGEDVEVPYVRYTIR

Row | Structure (SMILES) | IC50 [µM]
1 | CO[C@@]1(C(=O)N/C=C/c2ccc(O)cc2)O[C@](O)(C(=O)N/C=C/c2ccc(O)cc2)[C@@H](c2ccc(O)c(O)c2)[C@@H]1c1ccc(O)c(O)c1 [compound 1, suberitamide A] | ~11
2 | O=C(N/C=C/c1ccc(O)cc1)c1c(-c2ccc(O)c(O)c2)c(-c2ccc(O)c(O)c2)c(C(=O)N/C=C/c2ccc(O)cc2)n1CCc1ccc(O)cc1 [compound 2, suberitamide B] | ~11
